Experimental data reported in ChEMBL document CHEMBL1201862, “PubChem BioAssay data set” (2004).
Active and inactive are the calls of the source.

Experiments:
[1] = molecular target: T1, Ubiquitin-conjugating enzyme E2 N (Homo sapiens, UniProt P61088); format: functional;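 further: Dose-response confirmation in a TR-FRET assay detecting UBC13-driven polyubiquitin chain formation, inhibition measured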
T1 sequence (P61088 whole entry): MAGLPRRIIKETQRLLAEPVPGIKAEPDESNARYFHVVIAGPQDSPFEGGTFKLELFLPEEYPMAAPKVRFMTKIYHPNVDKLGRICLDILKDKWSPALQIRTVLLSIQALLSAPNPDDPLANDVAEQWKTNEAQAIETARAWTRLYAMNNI

[2] = viability of uninfected HEp-2 cells – cell-based, HTS, cytotoxicity control for RSV inhibitor project, dose response (AID 2410); format: functional; conditions: human respiratory syncytial virus
BJ [3] = assay: cells; format: functional, cell-based; conditions: Homo sapiens
BJ [4] = assay: BJ-TERT fibroblast viability loss – cell-based, RAS-independent, luminescence, dose response (AID 1933); format: functional; conditions: Homo sapiens
Paired box protein Pax-8 = Paired box protein Pax-8 (Homo sapiens, UniProt Q06710); assay: PAX8 transcriptional activity inhibition in RMG-I – RMG-I cells, luciferase, cherry-pick, dose response (AID 687027); format: functional, cell-based;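 further: luciferase reporter driven by Pax8 target thyroperoxidase promoter measured by SteadyGlo luminescence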
[5] = DRD fibroblast viability loss – cell-based, non-viral oncogenic, luminescence, dose response (AID 1934); format: functional; conditions: Homo sapiens
Large T antigen = Large T antigen (Simian virus 40, UniProt P03070); format: functional, Betapolyomavirus macacae;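 further: Confirmatory-stage PubChem screen for compounds that inhibit SV40 T antigen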
[6] = molecular target: Glyceraldehyde-3-phosphate dehydrogenase (Homo sapiens, UniProt P04406)
cells [7] = format: functional
[8] = viability of PTEN-deleted HCT116 cells – cell-based, HCT116 PTEN knockout, dose response (AID 1047); format: functional;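 further: HCT116 colon tumor cells with PTEN knocked out; cells exposed to compound for 60 hours before readout; potency for loss of cell viability measured by luminescence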
[9] = viability of HCT116 lacking mutant beta-catenin – cell-based, human colon tumor, dose response (AID 1045); format: functional;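 further: HCT116 colon tumor cells with beta catenin knocked out; cells exposed to compound for 60 hours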
[10] = luciferase reporter signal suppression in cells – H4 neuroglioma cells, luminescence, dose response (AID 1990); format: functional, cell-based
[11] = alpha-synuclein stem-loop luciferase translation blockers – H4 neuroglioma cells, luminescence, confirmation (AID 1988); format: functional, cell-based
[12] = Luminescence Cell-Based Dose Response HTS to Identify Inhibitors of 5'UTR Stem-Loop Driven Prion Protein mRNA Translation in H4 Neuroglioblastoma Cells. [Related pubchem assays: 1827 (Project Summary), 1813 (Primary HTS)]; format: functional
Cytochrome P450 3A4 = Cytochrome P450 3A4 (Homo sapiens, UniProt P08684);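 further: CYP3A4 tested as one member of a cytochrome P450 panel screen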
Genome polyprotein = Genome polyprotein (dengue virus type 2, UniProt P29990); assay: flavivirus cap methylation enzyme inhibition – biochemical, confirmation dose response, primary screen (AID 588689); format: functional
[13] = molecular target: T2, Rac GTPase-activating protein 1 (Homo sapiens, UniProt Q9H0H5); assay: blockers of MgcRacGAP-driven Rac1 GTP hydrolysis – biochemical, ADP Hunter fluorescence, primary and confirmatory, confirmation (AID 624330); format: functional
T2 sequence (Q9H0H5 whole entry): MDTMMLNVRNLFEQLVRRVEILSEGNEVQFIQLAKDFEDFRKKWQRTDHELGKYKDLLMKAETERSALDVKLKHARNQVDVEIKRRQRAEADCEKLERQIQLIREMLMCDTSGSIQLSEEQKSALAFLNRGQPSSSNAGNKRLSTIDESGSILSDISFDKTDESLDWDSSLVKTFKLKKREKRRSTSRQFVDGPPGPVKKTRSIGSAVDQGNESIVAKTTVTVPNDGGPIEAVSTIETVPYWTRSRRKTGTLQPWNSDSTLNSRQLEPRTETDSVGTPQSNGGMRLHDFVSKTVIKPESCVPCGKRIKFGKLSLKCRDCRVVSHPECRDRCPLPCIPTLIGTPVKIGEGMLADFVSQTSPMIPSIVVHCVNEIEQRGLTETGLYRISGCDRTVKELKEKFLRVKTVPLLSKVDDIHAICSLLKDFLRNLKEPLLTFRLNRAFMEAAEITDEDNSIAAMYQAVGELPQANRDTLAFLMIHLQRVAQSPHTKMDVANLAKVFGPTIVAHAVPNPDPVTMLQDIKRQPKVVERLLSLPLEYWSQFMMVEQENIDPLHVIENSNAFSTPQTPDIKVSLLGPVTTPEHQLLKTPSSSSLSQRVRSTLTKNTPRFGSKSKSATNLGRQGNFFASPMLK

cells [14] = format: functional, cell-based
cells [15] = format: functional, cell-based; remark: listed apart in the source
[16] = molecular target: Luciferin 4-monooxygenase (Photinus pyralis, UniProt P08659); assay: inhibition of purified Photinus pyralis luciferase – biochemical, luminescence, dose response (AID 1891)
[17] = Luminescence Cell-Based Dose Confirmation HTS to Identify Inhibitors of Platelet Dense Granule Release. [Related pubchem assays: 1663 (Primary HTS), 1678 (Summary of Project)]; format: functional
[18] = molecular target: FAD-linked sulfhydryl oxidase ALR (Homo sapiens, UniProt P55789); assay: ALR-catalysed DTT oxidation blockers – biochemical, H2O2 detection, luminescence, cherry-pick, dose response (AID 493248)
[19] = tested on: Streptococcus sp. 'group A'; assay: Streptococcus pyogenes SK(-)GAS viability under kanamycin – luminescence, BacTiterGlo, confirmation, counter-screen for streptokinase expression inhibitor project, dose response (AID 1900); format: functional, organism-based
Streptokinase A = molecular target: T3, Streptokinase A (Streptococcus pyogenes serotype M1, UniProt P10520); assay: viability-normalized secreted streptokinase activity reduction – plasminogen activation absorbance, OD405, dose response (AID 1914); format: functional, Streptococcus pyogenes M1 GAS;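 further: secreted streptokinase activity via plasminogen activation per viability signal from cell pellet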
T3 sequence (P10520 whole entry): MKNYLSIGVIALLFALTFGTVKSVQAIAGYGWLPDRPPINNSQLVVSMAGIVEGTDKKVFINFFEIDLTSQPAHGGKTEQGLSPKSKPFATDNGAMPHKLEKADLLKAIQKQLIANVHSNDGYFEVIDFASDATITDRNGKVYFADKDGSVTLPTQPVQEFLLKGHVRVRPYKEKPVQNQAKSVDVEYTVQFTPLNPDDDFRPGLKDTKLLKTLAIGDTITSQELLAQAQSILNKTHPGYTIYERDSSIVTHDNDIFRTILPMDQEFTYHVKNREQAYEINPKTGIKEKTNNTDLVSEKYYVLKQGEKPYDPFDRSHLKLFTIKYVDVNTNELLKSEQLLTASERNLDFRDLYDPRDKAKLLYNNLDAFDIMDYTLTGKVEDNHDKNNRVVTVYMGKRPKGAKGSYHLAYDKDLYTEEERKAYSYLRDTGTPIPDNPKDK

Streptococcus = assay: GAS UMAA2166 growth inhibition – luminescence, BacTiterGlo, counter-screen for streptokinase expression inhibitor project, dose response (AID 1915); format: functional, organism-based;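 further: potency for reduction of bacterial viability or growth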
[20] = non-specific 3'UTR reporter inhibition in Clone20-Shn3RL – cell-based, Renilla luciferase, cherry-picked, counter-screen for Shn3 inhibitor project, dose response (AID 624133); format: functional
[21] = loss of viability in HepG2 cells – cell-based, CellTiter-Glo, cherry-picked, cytotoxicity control for Shn3 inhibitor project, dose response (AID 624134); format: functional
[22] = reduction of Shn3 3'UTR-driven luciferase in osteoblasts – cell-based, Clone20 osteoblasts, firefly luciferase, cherry-picked, dose response (AID 624132); format: functional;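 further: firefly luciferase luminescence from reporter carrying the Shn3 3'UTR in osteoblasts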

Genome polyprotein, sequence (P29990 2492-3391 limits assumed): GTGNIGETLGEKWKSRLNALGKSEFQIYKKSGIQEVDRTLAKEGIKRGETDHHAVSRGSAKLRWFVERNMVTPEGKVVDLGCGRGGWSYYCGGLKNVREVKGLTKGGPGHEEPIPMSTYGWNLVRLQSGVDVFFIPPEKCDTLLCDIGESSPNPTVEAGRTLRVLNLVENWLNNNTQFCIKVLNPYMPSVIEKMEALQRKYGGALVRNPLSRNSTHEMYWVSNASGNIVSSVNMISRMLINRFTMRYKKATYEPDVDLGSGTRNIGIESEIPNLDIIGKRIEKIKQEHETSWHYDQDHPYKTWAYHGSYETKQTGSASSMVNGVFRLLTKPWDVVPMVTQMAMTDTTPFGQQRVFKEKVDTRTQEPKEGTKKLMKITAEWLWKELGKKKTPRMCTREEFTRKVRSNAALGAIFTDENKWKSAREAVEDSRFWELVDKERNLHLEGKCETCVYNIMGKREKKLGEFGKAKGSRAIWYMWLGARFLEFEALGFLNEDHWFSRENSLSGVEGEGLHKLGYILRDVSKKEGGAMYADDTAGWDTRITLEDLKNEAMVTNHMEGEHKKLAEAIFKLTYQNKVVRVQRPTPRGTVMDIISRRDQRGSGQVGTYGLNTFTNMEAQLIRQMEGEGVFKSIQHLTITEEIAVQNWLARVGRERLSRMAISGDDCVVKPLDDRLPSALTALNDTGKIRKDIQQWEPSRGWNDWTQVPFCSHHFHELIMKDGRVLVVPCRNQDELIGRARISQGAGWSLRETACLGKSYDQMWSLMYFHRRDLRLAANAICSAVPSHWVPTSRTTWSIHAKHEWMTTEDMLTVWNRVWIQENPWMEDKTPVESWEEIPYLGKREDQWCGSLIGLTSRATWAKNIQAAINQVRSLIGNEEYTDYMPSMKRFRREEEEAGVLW
Large T antigen, sequence (P03070 whole entry): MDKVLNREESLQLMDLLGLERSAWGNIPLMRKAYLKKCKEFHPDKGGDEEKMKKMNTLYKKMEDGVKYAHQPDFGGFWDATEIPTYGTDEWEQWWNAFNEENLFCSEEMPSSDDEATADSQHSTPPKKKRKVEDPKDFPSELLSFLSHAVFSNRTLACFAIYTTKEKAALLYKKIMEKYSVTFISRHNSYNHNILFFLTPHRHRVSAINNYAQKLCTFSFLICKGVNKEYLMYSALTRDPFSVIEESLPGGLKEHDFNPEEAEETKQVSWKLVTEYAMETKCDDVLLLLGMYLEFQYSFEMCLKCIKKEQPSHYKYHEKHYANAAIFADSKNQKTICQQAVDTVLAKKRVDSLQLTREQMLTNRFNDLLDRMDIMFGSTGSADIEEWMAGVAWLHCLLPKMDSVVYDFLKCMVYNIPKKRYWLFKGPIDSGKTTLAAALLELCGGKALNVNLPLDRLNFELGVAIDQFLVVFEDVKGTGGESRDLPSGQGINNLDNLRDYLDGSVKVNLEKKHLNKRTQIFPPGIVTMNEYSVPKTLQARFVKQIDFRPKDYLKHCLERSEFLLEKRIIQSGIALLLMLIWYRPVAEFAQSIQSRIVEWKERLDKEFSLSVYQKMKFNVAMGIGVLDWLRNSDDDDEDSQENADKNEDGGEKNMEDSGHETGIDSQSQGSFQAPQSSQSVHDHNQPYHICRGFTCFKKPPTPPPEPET
Glyceraldehyde-3-phosphate dehydrogenase, sequence (P04406 whole entry): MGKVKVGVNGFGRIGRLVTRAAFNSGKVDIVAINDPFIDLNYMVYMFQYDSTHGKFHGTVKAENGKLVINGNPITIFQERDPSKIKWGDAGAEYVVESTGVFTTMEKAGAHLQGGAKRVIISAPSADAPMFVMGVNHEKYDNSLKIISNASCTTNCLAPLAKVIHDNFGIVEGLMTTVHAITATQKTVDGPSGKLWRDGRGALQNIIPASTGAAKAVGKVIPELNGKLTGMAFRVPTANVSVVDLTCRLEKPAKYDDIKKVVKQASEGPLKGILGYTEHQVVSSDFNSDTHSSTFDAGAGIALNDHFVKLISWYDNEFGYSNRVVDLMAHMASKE
FAD-linked sulfhydryl oxidase ALR, sequence (P55789 whole entry): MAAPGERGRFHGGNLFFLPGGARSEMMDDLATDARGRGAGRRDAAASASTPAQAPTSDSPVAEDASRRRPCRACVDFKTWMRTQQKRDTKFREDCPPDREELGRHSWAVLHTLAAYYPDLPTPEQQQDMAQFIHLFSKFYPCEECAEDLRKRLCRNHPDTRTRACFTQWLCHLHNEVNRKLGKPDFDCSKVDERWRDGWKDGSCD
Paired box protein Pax-8, sequence (Q06710 whole entry): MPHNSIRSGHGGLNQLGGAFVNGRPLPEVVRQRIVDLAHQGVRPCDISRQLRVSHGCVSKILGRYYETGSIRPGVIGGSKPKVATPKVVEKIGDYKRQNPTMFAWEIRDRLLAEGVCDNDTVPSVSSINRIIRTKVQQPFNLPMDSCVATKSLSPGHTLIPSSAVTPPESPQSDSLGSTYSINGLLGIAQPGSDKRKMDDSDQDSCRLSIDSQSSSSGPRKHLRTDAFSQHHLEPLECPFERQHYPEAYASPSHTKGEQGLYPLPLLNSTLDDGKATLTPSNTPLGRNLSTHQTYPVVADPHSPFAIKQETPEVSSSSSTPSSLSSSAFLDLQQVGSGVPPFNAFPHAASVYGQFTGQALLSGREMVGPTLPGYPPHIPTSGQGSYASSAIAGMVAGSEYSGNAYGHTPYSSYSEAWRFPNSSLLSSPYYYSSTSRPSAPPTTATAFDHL
Luciferin 4-monooxygenase, sequence (P08659 whole entry): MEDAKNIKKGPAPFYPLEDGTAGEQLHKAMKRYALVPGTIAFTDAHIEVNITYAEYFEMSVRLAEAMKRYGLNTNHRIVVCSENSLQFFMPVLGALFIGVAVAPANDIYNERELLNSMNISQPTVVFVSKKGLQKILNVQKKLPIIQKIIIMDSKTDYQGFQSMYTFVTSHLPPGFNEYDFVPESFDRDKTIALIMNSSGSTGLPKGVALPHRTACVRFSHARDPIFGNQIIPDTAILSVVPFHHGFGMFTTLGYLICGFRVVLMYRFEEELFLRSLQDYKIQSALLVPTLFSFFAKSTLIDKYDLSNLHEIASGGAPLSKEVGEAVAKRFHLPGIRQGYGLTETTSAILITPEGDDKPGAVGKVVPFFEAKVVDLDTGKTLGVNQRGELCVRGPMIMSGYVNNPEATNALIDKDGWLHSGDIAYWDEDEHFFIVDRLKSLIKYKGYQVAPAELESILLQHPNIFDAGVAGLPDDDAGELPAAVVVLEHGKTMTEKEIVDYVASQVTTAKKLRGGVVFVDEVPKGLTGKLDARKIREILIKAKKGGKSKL
Cytochrome P450 3A4, sequence (P08684 whole entry): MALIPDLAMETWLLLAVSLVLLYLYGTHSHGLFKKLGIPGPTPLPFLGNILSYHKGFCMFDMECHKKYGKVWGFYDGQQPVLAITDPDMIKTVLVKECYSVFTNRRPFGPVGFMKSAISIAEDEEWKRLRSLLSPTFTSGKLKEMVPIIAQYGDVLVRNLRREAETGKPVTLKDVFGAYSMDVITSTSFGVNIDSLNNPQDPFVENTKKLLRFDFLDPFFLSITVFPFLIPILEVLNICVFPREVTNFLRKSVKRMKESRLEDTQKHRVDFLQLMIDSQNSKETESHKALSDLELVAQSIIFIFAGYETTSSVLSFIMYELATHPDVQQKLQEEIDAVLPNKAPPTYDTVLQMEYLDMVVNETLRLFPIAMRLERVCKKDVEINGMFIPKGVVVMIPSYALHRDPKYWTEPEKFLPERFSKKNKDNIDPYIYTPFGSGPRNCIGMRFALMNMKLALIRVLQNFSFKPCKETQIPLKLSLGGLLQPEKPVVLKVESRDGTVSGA

SMILES: Cc1c(C(=O)Nc2ccc(S(=O)(=O)N(C)C3CCN(C)CC3)cc2)oc2ccccc12
- IC50 [1]: > 20 µM (inactive)
- CC50 [2]: 17.2 µM (active)

SMILES: COc1ccc(C(=O)NN(C)c2nc(C(F)(F)F)nc3ccccc23)cc1
- EC50 (BJ [3]): 450 nM (active)
- EC50 (BJ [4]): < 120 nM (active)
- AC50 (Paired box protein Pax-8): 1.79 µM (active)
- EC50 [5]: < 120 nM (active)

SMILES: O=C1CCCN1CCCNC(=S)Nc1ccc(Nc2ccccc2)cc1
- IC50 (Large T antigen): 18.7 µM (active)

SMILES: CCN1CCN(C2=C(Cl)C(=O)N(c3cccc(OC)c3)C2=O)CC1
- IC50 [6]: > 50 µM (inconclusive)

SMILES: CC(=O)c1ccc(OCC(=O)Nc2ccc3c(c2)CCC3)cc1
- IC50 (cells [7]): > 50 µM (active)

SMILES: Cc1cc(NC(=O)COC(=O)COc2ccc(C(=O)c3ccccc3)cc2)no1
- IC50 (cells [7]): 21.2 µM (active)

SMILES: O=C(NC1CCCCC1)C(c1ccccc1F)N(Cc1ccco1)C(=O)Cn1nnc2ccccc21 (stereo unspecified)
- EC50 [8]: 16 µM (active)
- EC50 [9]: 16 µM (active)

SMILES: Cc1ccc(-c2nn(-c3ccccc3)cc2CSC(=N)N)cc1
- IC50 [1]: > 20 µM (inactive)
- EC50 [10]: > 120 µM (not active)
- EC50 [8]: 17.1 µM (active)
- EC50 [11]: > 120 µM (not active)
- EC50 [12]: > 120 µM (not active)
- EC50 [9]: 17.4 µM (active)
- CC50 [2]: 14.9 µM (active)
- AC50 (Cytochrome P450 3A4): 39.8 µM (inconclusive)

SMILES: C/C(=N\NC(=O)c1c(Br)c(C)nn1C)c1ccc(NC(=O)C(C)Oc2ccc(Cl)cc2C)cc1 (stereo unspecified)
- EC50 [8]: 11 µM (active)
- EC50 [9]: 15.1 µM (active)

SMILES: Cc1n[nH]c(O)c1C(c1ccc(-c2ccc(Cl)c(C(=O)O)c2)o1)c1c(O)n[nH]c1C
- IC50 (Genome polyprotein): > 100 µM (active)

SMILES: Cc1ccc(NC(=O)c2ccc(NCCN)c([N+](=O)[O-])c2)cc1Cl
- IC50 [1]: > 20 µM (inactive)
- CC50 [2]: 24.4 µM (active)

SMILES: CCN(CC)c1ccc(NC(=O)COC(=O)c2ccc3ccccc3n2)cc1
- IC50 (Large T antigen): 48.2 µM (active)

SMILES: COc1cc(/C=C2\SC(Nc3ccc(Cl)c(C(=O)O)c3)=NC2=O)c(Br)c(Br)c1O
- IC50 [13]: 13.9 µM (active)
- IC50 (Large T antigen): 3.27 µM (active)

SMILES: COc1ccc(C(CC(=O)O)C(N)=O)cc1 (stereo unspecified)
- IC50 [6]: > 100 µM (not active)

SMILES: CCOc1ccc(NCc2cccn2-c2nnc(N3CCC(C(=O)NCCCN4CCCCC4CC)CC3)s2)cc1 (stereo unspecified)
- IC50 (Large T antigen): 11.7 µM (active)

SMILES: CCOC(=O)C1=C(C)N=C(C)/C(=C(/O)OCC)C1C(=O)OCC(=O)N(C)C1CCS(=O)(=O)C1 (stereo unspecified)
- EC50 (cells [14]): > 350 µM (not active)
- EC50 (cells [15]): > 350 µM (not active)

SMILES: CC(C)NC(=O)NC(=O)CSc1nnc(-c2ccccc2F)n1N
- EC50 (cells [14]): > 350 µM (not active)
- EC50 (cells [15]): > 350 µM (not active)

SMILES: Cc1cccc(C(=N)NOC(=O)c2ccoc2C)c1
- EC50 [16]: 3.65 µM (active)
- EC50 [17]: 3.25 µM (active)
- EC50 (cells [14]): 7.1 µM (active)
- EC50 (cells [15]): > 350 µM (not active)

SMILES: Cc1cc(C(C2C(=O)CC(C)(C)CC2=O)C2C(=O)CC(C)(C)CC2=O)cc(C)c1OC(F)F
- IC50 (Genome polyprotein): 43.5 µM (active)

SMILES: COc1cccc(/C=C2\SC(=S)N(C(Cc3ccccc3)C(=O)O)C2=O)c1 (stereo unspecified)
- IC50 (Genome polyprotein): 44.4 µM (active)

SMILES: CC(C)C1Cc2c(sc3c2c(=O)n(-c2ccccc2)c2n[nH]c(=S)n32)CO1 (stereo unspecified)
- IC50 (Large T antigen): 29.5 µM (active)

SMILES: Cc1cc(N/N=C/c2cccc(Cl)c2)nc(NCc2ccccc2)n1
- EC50 [8]: 35.3 µM (active)
- EC50 [9]: 39.6 µM (active)

SMILES: O=C(CN1CCCCC1)N1CCCc2ccccc21
- EC50 (cells [14]): > 350 µM (not active)
- EC50 (cells [15]): > 350 µM (not active)

SMILES: CC/N=c1\scc(C)n1/N=C/c1cc(Br)c(O)c(Br)c1
- IC50 (Large T antigen): 21.6 µM (active)
- CC50 [2]: 13.3 µM (active)

SMILES: COc1cc(/C=N/NC(=O)c2cc(C3CC3)[nH]n2)ccc1O
- IC50 (Large T antigen): 7.28 µM (active)
- AC50 [18]: 1.74 µM (active)

SMILES: CC(=O)Nc1nc2ccccc2n1CCOc1ccccc1
- EC50 [8]: 15.4 µM (active)
- EC50 [19]: 11.3 µM (active)
- EC50 (Streptokinase A): > 150 µM (not active)
- EC50 [9]: 12.7 µM (active)
- EC50 (Streptococcus): > 150 µM (not active)

SMILES: COc1cc(/C=N/NC(=O)c2cccc(S(=O)(=O)N3CCCC3)c2)ccc1O
- IC50 (Large T antigen): 9.24 µM (active)
- AC50 [18]: 1.79 µM (active)

SMILES: COc1cc(/C=C2\C(=N)N3N=C(CC(=O)N4CCCCC4)SC3=NC2=O)ccc1O
- IC50 (Large T antigen): 22.5 µM (active)

SMILES: Cc1ccc(N(C)S(=O)(=O)c2ccc(-c3cc(C)no3)s2)cc1
- EC50 (cells [14]): > 350 µM (not active)
- EC50 (cells [15]): > 350 µM (not active)

SMILES: O=C(O)Cc1csc(COc2ccccc2)n1
- IC50 [6]: > 100 µM (not active)

SMILES: c1csc(CCNc2ncnc3sc4c(c23)CCC4)c1
- EC50 [8]: 63.9 µM (active)
- AC50 [20]: 988 nM (active)
- EC50 [9]: 72.7 µM (active)
- AC50 [21]: 7.76 µM (active)
- AC50 [22]: 1.7 µM (active)

SMILES: COc1ccccc1/C=C1/C(=O)ON=C1C
- IC50 (Genome polyprotein): > 100 µM (active)
